# Structures can show the parent of a compound that is named as a salt.
# Target: T1, human IKK-β (Homo sapiens, UniProt O14920)
# T1 construct: A cDNA fragment encoding human IKK-β open reading frame was generated by PCR; His tag (from pcDNA3.1/His C); made in house; host or cells: Sf21 insect cells (baculovirus); substrate made in E. coli
# T1 sequence (O14920 1-756): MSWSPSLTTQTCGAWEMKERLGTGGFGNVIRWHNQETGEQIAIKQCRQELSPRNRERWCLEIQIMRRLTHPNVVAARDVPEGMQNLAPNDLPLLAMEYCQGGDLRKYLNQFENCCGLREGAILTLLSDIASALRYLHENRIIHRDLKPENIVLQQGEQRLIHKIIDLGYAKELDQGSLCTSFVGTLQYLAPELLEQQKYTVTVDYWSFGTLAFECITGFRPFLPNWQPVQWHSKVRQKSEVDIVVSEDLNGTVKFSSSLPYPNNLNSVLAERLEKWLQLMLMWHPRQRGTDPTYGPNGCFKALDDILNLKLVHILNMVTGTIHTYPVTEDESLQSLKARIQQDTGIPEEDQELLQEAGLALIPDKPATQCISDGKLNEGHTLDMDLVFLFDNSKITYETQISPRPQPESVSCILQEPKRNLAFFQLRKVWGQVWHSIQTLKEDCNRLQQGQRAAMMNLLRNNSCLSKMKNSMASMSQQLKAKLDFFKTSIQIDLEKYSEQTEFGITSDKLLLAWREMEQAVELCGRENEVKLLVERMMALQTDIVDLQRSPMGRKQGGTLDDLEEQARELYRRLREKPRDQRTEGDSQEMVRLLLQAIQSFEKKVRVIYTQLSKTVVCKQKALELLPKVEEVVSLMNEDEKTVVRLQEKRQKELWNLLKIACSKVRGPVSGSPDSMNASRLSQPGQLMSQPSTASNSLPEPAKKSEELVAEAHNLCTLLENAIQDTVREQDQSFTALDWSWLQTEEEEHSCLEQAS
# Test: IKK-β kinase inhibitory assay
# Type: biochemical
# Conditions: compounds as yielded by solid phase synthesis, purity about 40 to 90%, read-out: In vitro activity grade (In vitro IC50)
# Outline: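 Radiometric read-out: streptavidin capture of 33P-labelled bio-GST-IκBα(1-54), 0.2 μM, after a 2 h room-temperature reaction started with ATP/[γ-33P]ATP. Enzyme was recombinant His-tagged human IKK-β expressed in Sf21 insect cells, used at 0.6 μg/ml in Tris-HCl pH 7.6/MgCl2 kinase buffer. Compounds added in 2.5% DMSO.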
row,Compound,IC50 [µM]
1,N#Cc1c(C2CCCNC2)cc(-c2ccc(O)cc2O)nc1N (stereo not drawn) [Example 1-18],0.5 to 2
2,N#Cc1c(CCO)cc(-c2ccccc2O)nc1N [Example 1-44],0.5 to 2
3,N#Cc1c(C2CCNCC2)cc(-c2ccccc2O)nc1N [Example 1-13],< 0.5
4,N#Cc1c(C2CCCN(C(=O)CCN3CCCCC3)C2)cc(-c2ccccc2O)nc1N (stereo not drawn) [Example 1-41],0.5 to 2
5,CS(=O)(=O)N1CCCC(c2cc(-c3ccccc3O)nc(N)c2C#N)C1 (stereo not drawn) [Example 1-42],2 to 10
6,N#Cc1c(C2CCCNC2)cc(-c2cccc(F)c2O)nc1N (stereo not drawn) [Example 1-19],< 0.5
7,Cc1cccc(-c2cc(C3CCCNC3)c(C#N)c(N)n2)c1O (stereo not drawn) [Example 1-17],0.5 to 2
8,N#Cc1c([C@H](N)Cc2ccccc2)cc(-c2ccccc2O)nc1N [Example 1-34],< 0.5
9,N#Cc1c(CC(N)c2ccccc2)cc(-c2ccccc2O)nc1N (stereo not drawn) [Example 1-35],< 0.5
10,CCc1cc(-c2ccccc2O)nc(N)c1C#N [Example 1-39],2 to 10
11,CC(C)[C@H](N)c1cc(-c2ccccc2O)nc(N)c1C#N [Example 1-33],< 0.5
12,N#Cc1c([C@@H]2CCCN2)cc(-c2ccccc2O)nc1N [Example 1-31],0.5 to 2
13,N#Cc1c(C2CNCCN2)cc(-c2ccccc2O)nc1N (stereo not drawn) [Example 1-15],0.5 to 2
14,N#Cc1c(CCN)cc(-c2ccccc2O)nc1N [Example 1-37],< 0.5
15,N#Cc1c(C2CCCCN2)cc(-c2ccccc2O)nc1N (stereo not drawn) [Example 1-14],0.5 to 2
16,N#Cc1c(C2CCC(N)CC2)cc(-c2ccccc2O)nc1N (stereo not drawn) [Example 1-22],< 0.5
17,C[C@H](N)c1cc(-c2ccccc2O)nc(N)c1C#N [Example 1-32],< 0.5
18,COc1ccc(C[C@H](N)c2cc(-c3ccccc3O)nc(N)c2C#N)cc1 [Example 1-26],< 0.5
19,N#Cc1c([C@H](Cc2ccccc2)NC(=O)CCN2CCCCC2)cc(-c2ccccc2O)nc1N [Example 1-40],0.5 to 2
20,CCCC[C@H](N)c1cc(-c2ccccc2O)nc(N)c1C#N [Example 1-28],< 0.5
21,Cc1cccc(O)c1-c1cc(C2CCCNC2)c(C#N)c(N)n1 (stereo not drawn) [Example 1-21],2 to 10
22,CC(N)Cc1cc(-c2ccccc2O)nc(N)c1C#N (stereo not drawn) [Example 1-36],< 0.5
23,N#Cc1c([C@@H](N)CCc2ccccc2)cc(-c2ccccc2O)nc1N [Example 1-29],0.5 to 2
24,CCCN(CCC)C1CCCC(c2cc(-c3ccccc3O)nc(N)c2C#N)C1 (stereo not drawn) [Example 1-43],< 0.5

# Other lines, results leading:
row,IC50 [µM],Compound
1,< 0.5,N#Cc1c(C2CCCNC2)cc(-c2c(O)cccc2OCc2cccc([N+](=O)[O-])c2)nc1N (stereo not drawn) [Example 2-13]
2,< 0.5,"CS(=O)(=O)N1Cc2c(C3CCCNC3)cc(-c3c(O)cccc3OCC3CC3)nc2NC1=O (stereo not drawn) [Example 24-4, 7-[2-(cyclopropylmethoxy)-6-hydroxyphenyl]-3-(methylsulfonyl)-5-(3-piperidinyl)-3,4-dihydropyrido[2,3-d]pyrimidin-2(1H)-one hydrochloride]"
3,< 0.5,N#Cc1c(C2CCCNC2)cc(-c2c(O)cccc2OCc2cccc(Cl)c2)nc1N (stereo not drawn) [Example 2-18]
4,< 0.5,"CCOC(=O)c1cc2c(C3CCCNC3)cc(-c3ccccc3O)nc2[nH]c1=O (stereo not drawn) [Example 25-1, ethyl 7-(2-hydroxyphenyl)-2-oxo-5-(3-piperidinyl)-1,2-dihydro-1,8-naphthyridine-3-carboxylate hydrochloride]"
5,2 to 10,N#Cc1c(C2CCCNC2)cc(-c2c(O)cccc2OCCN2CCCC2)nc1N (stereo not drawn) [Example 2-87]
6,< 0.5,N#Cc1c(C2CCCNC2)cc(-c2c(O)cccc2OCC2CC2)nc1N (stereo not drawn) [Example 2-65]
7,< 0.5,"O=c1[nH]c2nc(-c3c(O)cccc3OCC3CC3)cc(C3CCCNC3)c2cc1F (stereo not drawn) [Example 25-2, 7-[2-(cyclopropylmethoxy)-6-hydroxyphenyl]-3-fluoro-5-(3-piperidinyl)-1,8-naphthyridin-2(1H)-one hydrochloride]"
8,< 0.5,N#Cc1c(C2CCCNC2)cc(-c2c(O)cccc2OCCN2CCOCC2)nc1N (stereo not drawn) [Example 2-84]
9,< 0.5,N#Cc1ccc(COc2cccc(O)c2-c2cc(C3CCCNC3)c(C#N)c(N)n2)cc1 (stereo not drawn) [Example 2-16]
10,< 0.5,Cc1cccc(COc2cccc(O)c2-c2cc(C3CCCNC3)c(C#N)c(N)n2)c1 (stereo not drawn) [Example 2-07]
11,< 0.5,N#Cc1c(C2CCNCC2)cc(-c2c(O)cccc2OCC2CCC2)nc1N [Example 2-68]
12,< 0.5,N#Cc1c(C2CCCNC2)cc(-c2c(O)cccc2OCC2CCCCO2)nc1N (stereo not drawn) [Example 2-79]
13,< 0.5,N#Cc1c(C2CCCNC2)cc(-c2c(O)cccc2OCc2ccccc2[N+](=O)[O-])nc1N (stereo not drawn) [Example 2-12]
14,< 0.5,CC(C)CCCOc1cccc(O)c1-c1cc(C2CCCNC2)c(C#N)c(N)n1 (stereo not drawn) [Example 2-63]
15,< 0.5,"O=C1CCc2c(C3CCCNC3)cc(-c3ccccc3O)nc2N1 (stereo not drawn) [Example 27-1, 7-(2-hydroxyphenyl)-5-(3-piperidinyl)-3,4-dihydro-1,8-naphthyridin-2(1H)-one hydrochloride]"
16,< 0.5,CCCCCCOc1cccc(O)c1-c1cc(C2CCNCC2)c(C#N)c(N)n1 [Example 2-76]
17,< 0.5,N#Cc1c(C2CCCNC2)cc(-c2c(O)cccc2OCCC2CCCCC2)nc1N (stereo not drawn) [Example 2-61]
18,< 0.5,CC(C)CCCOc1cccc(O)c1-c1cc(C2CCNCC2)c(C#N)c(N)n1 [Example 2-66]
19,< 0.5,"CCOC(=O)C1Cc2c(C3CCCNC3)cc(-c3ccccc3O)nc2NC1=O (stereo not drawn) [Example 26-1, ethyl 7-(2-hydroxyphenyl)-2-oxo-5-(3-piperidinyl)-1,2,3,4-tetrahydro-1,8-naphthyridine-3-carboxylate]"
20,< 0.5,CCCCCOc1cccc(O)c1-c1cc(C2CCNCC2)c(C#N)c(N)n1 [Example 2-69]

row,IC50 [µM],Compound
1,< 0.5,N#Cc1c(C2CCNCC2)cc(-c2c(O)cccc2OCCC2CCCCC2)nc1N [Example 2-70]
2,< 0.5,"O=c1ccc2c(C3CCCNC3)cc(-c3c(O)cccc3OCC3CC3)nc2[nH]1 (stereo not drawn) [Example 25-4, 7-[2-(cyclopropylmethoxy)-6-hydroxyphenyl]-5-(3-piperidinyl)-1,8-naphthyridin-2(1H)-one hydrochloride]"
3,< 0.5,N#Cc1c(C2CCCNC2)cc(-c2c(O)cccc2OCc2ccc3ccccc3c2)nc1N (stereo not drawn) [Example 2-21]
4,2 to 10,N#Cc1c(C2CCCNC2)cc(-c2c(O)cccc2OCCN2CCCCCC2)nc1N (stereo not drawn) [Example 2-86]
5,< 0.5,Cc1ccc(COc2cccc(O)c2-c2cc(C3CCCNC3)c(C#N)c(N)n2)cc1 (stereo not drawn) [Example 2-08]
6,< 0.5,N#Cc1c(C2CCCNC2)cc(-c2c(O)cccc2OCC2CCC2)nc1N (stereo not drawn) [Example 2-62]
7,< 0.5,N#Cc1c(C2CCCNC2)cc(-c2c(O)cccc2OCc2c(Cl)cccc2Cl)nc1N (stereo not drawn) [Example 2-20]
8,< 0.5,C=CCOc1cccc(O)c1-c1cc(C2CCNCC2)c(C#N)c(N)n1 [Example 2-74]
9,< 0.5,"CCOC(=O)N1Cc2c(C3CCCNC3)cc(-c3c(O)cccc3OCC3CC3)nc2NC1=O (stereo not drawn) [Example 24-2, ethyl 7-[2-(cyclopropylmethoxy)-6-hydroxyphenyl]-2-oxo-5-(3-piperidinyl)-1,4-dihydropyrido[2,3-d]pyrimidine-3(2H)-carboxylate hydrochloride]"
10,< 0.5,N#Cc1c(C2CCCNC2)cc(-c2c(O)cccc2OCC2CCCO2)nc1N (stereo not drawn) [Example 2-81]
11,< 0.5,N#Cc1cccc(COc2cccc(O)c2-c2cc(C3CCCNC3)c(C#N)c(N)n2)c1 (stereo not drawn) [Example 2-15]
12,< 0.5,CCCOc1cccc(O)c1-c1cc(C2CCNCC2)c(C#N)c(N)n1 [Example 2-67]
13,< 0.5,CC(C)COc1cccc(O)c1-c1cc(C2CCNCC2)c(C#N)c(N)n1 [Example 2-71]
14,< 0.5,N#Cc1c(C2CCCNC2)cc(-c2c(O)cccc2OCc2ccc(C(F)(F)F)cc2)nc1N (stereo not drawn) [Example 2-10]
15,< 0.5,N#Cc1c(C2CCCNC2)cc(-c2c(O)cccc2OCc2ccc([N+](=O)[O-])cc2)nc1N (stereo not drawn) [Example 2-14]
16,< 0.5,CCCCCCCOc1cccc(O)c1-c1cc(C2CCCNC2)c(C#N)c(N)n1 (stereo not drawn) [Example 2-64]
17,0.5 to 2,N#Cc1c(C2CCCNC2)cc(-c2c(O)cccc2OCCN2CCCCC2)nc1N (stereo not drawn) [Example 2-83]
18,0.5 to 2,CN(C)CCOc1cccc(O)c1-c1cc(C2CCCNC2)c(C#N)c(N)n1 (stereo not drawn) [Example 2-85]
19,< 0.5,N#Cc1c(C2CCNCC2)cc(-c2c(O)cccc2OCC2CCCO2)nc1N (stereo not drawn) [Example 2-82]
